Where two headings read alike, the source gives them in different places.
Columns and labels:
PC-3 cells [1] = assay: Chemo-inducibility of Ad.Egr-TNF.11D in vitro, PC-3 cells
Experimental: (§1) PC-3 and PROb cells were plated, infected with Ad.Egr.TNF, and incubated as discussed above. After incubation, 200 μl of CM, with or without chemotherapeutic agents, including cisplatin (250 μM), doxorubicin (3 μM), 5-fluorouracil (100 mM), gemcitabine (3 mM) and paclitaxel (14 μM) were added. Conditioned medium was harvested 24 hrs. later, and TNF-α concentration was measured (Quantikine Human TNF-α ELISA kit, R & D Systems, Minneapolis, Minn.).

PROb cells [2] = assay: Chemo-inducibility of Ad.Egr-TNF.11D in vitro, PROb cells; format: cell-based, rat
Experimental: as §1

PROb cells [3] = assay: Preliminary in vitro TNF-α induction, PROb cells; format: cell-based, rat; details: PROb cells treated with Ad.TNF (100 MOI), 24 hrs; cisplatin 250 μM, doxorubicin 3 μM, 5-FU 20 mM, paclitaxel 14 μM
Experimental: (§2) In vitro measurement of TNF-α protein. PC-3 and PROb cells were plated in 96-well plates, grown overnight, and infected with Ad.Egr.TNF at 100 multiplicities of infection, incubated for three hrs, and were then treated with cisplatin (250 μM), doxorubicin (3 μM), 5-FU (20 mM) or paclitaxel (14 μM). Supernatants were harvested 24 hrs later and human TNF-α production was quantified by ELISA. Experiments were performed in quintuplicate.

PROb xenografts [4] = format: in vivo, nude mice; details: IT vector 5×10^9 p.u. + IP agent vs vector plus NS, cisplatin 9, cyclophosphamide 160, doxorubicin 15, 5-FU 100, gemcitabine 500 mg/kg
Experimental: (§3) In vivo measurement of TNF-α protein. PC-3 (1×10^7 cells) or PROb cells (5×10^6) in 100 μl PBS were injected subcutaneously into the right hind limb of nude mice. Tumor-bearing mice received IT Ad.Egr.TNF (5×10^9 p.u. in 10 μl) with 250 μl of complete media with NS or a chemotherapeutic agent, including cisplatin (9 mg/kg), cyclophosphamide (160 mg/kg), doxorubicin (15 mg/kg), 5-fluorouracil (100 mg/kg) and gemcitabine (500 mg/kg). Each mouse IP injections were administered 20 hrs after transfection, and two consecutive IT and IP injections were given. Animals were euthanized, and xenografts were harvested 48 hrs after the second IP injection. Xenografts were snap-frozen in liquid nitrogen and homogenized in RIPA buffer (150 mM NaCl, 10 mM Tris at pH 7.5, 5 mM EDTA at pH 7.5, 100 mM PMSF, 1 μg/ml leupeptin and 2 μg/ml aprotinin). After three freeze-thaw lysis cycles, the homogenate was centrifuged for 10 minutes at 4° C. TNF-α levels in the supernatants were measured as described above.

PC-3 xenografts [5] = format: in vivo, nude mice; details: IT vector 5×10^9 p.u. + IP agent vs vector and NS, cisplatin 9, cyclophosphamide 160, doxorubicin 15, 5-FU 100 mg/kg
Experimental: as §3

PC-3 cells [6] = assay: Chemo-sensitivity by MTS assay, PC-3 cells; format: cell-based, human; details: PC-3, Ad.Egr-TNF.11D and chemotherapy 24 hrs
Experimental: (§4) Chemo-sensitivity of PC-3 and PROb cells as determined by MTS assay. PC-3 and PROb cells were plated at a density of 10^5 cells/100 μl medium in 96-well tissue culture plates and incubated overnight. […] After incubation, 200 μl of complete media, with or without chemotherapeutic agents, was added. Chemotherapeutic agents used were at final concentrations of cisplatin at 46 and 460 μM, doxorubicin at 3 and 300 μM, 5-fluorouracil at 2 and 200 mM and paclitaxel at 1.4 and 140 μM. Media was removed 24 hrs later and each well was rinsed with 200 μl of complete media (CM) and aspirated. 100 μl of CM was then added with 20 μl of CellTiter 96® Aqueous One Solution Cell Proliferation Assay solution (Promega, Madison, Wis.), and the cells were allowed to incubate for 1 hr. Absorbance was measured at 490-650 nm.

PROb cells [7] = assay: Chemo-sensitivity by MTS assay, PROb cells; format: cell-based, rat; details: Ad.Egr-TNF.11D and chemotherapy 24 hrs
Experimental: as §4

PC-3 cells [8] = assay: Preliminary in vitro TNF-α induction, PC-3 cells; format: cell-based, human; details: vector treated PC-3 cells (100 MOI), 24 hrs; cisplatin 250 μM, doxorubicin 3 μM, 5-FU 20 mM, paclitaxel 14 μM
Experimental: as §2

PROb xenografts [9] = details: for induction of TNF-α protein: PROb xenografts, vector + IP agent vs vector alone, cisplatin 9, cyclophosphamide 160, doxorubicin 15, 5-FU 100, gemcitabine 500 mg/kg
Experimental: (§5) Saline or chemotherapeutic agents administered IP on days 1 and 2, including 9 mg/kg cisplatin, 160 mg/kg cyclophosphamide, 15 mg/kg doxorubicin, 100 mg/kg 5-FU and 500 mg/kg gemcitabine. Animals were euthanized, and xenografts were harvested 24 hrs after the second IP injection. Xenografts were snap-frozen in liquid nitrogen and homogenized in RIPA buffer (150 mM NaCl, 10 mM Tris pH 7.5, 5 mM EDTA pH 7.5, 100 mM PMSF, 1 µg/ml leupeptin and 2 μg/ml aprotinin) using a Brinkman Polytron homogenizer (Kinematica AG, Lucerne, Switzerland). After three freeze-thaw lysis cycles, the homogenate was centrifuged at 7800×g in a Sorvall RC-5C SS34 rotor (Kendro Laboratory Products, Newtown, Conn.) for 10 min at 4° C. TNF-α levels in the supernatants were measured by ELISA as described above.

PC-3 xenografts [10] = format: in vivo, athymic nude mice; details: vector + IP agent days 1 and 2, cisplatin 9, cyclophosphamide 160, doxorubicin 15, 5-FU 100, gemcitabine 500 mg/kg
Experimental: as §5

PROb cells [11] = assay: N-acetyl cysteine effects on TNF-α production in vitro, PROb cells; format: cell-based, rat
Experimental: (§6) N-acetyl cysteine effects on TNF-α production in vitro. PC-3 and PROb cells were plated and infected with Ad.Egr-TNF.11D as described above. PC-3 and PROb cells were treated with NAC at 0 mM, 10 mM, 20 mM and 30 mM, followed immediately by the addition of 100 mM 5-FU. Conditioned medium was collected after 24 hrs of incubation at 37° C. and stored at −20° C. TNF-α levels were determined by ELISA.
(§7) PC-3 and PROb cells were plated and infected with Ad.Egr-TNF.11D as above. Prior to the addition of chemotherapeutic agents (cisplatin, doxorubicin, 5-FU, gemcitabine and paclitaxel), 20 mM NAC in 0.1 ml complete medium was added to each well. Conditioned medium was collected after 24 hrs. of incubation at 37° C., and stored at −20° C. TNF-α levels were determined by ELISA.

PC-3 cells [12] = assay: N-acetyl cysteine effects on TNF-α production in vitro, PC-3 cells; format: cell-based, human
Experimental: as §6, §7

PROb xenografts [13] = assay: In vivo regrowth study, PROb xenografts; parameters: species or system athymic nude mice; details: IT vector 2×10^8 p.u., IP cisplatin 3 mg/kg, 4 daily injections, cisplatin line = with null vector
Experimental: (§8) In vivo regrowth studies. Seg-1 or PROb cells (5×10^6/0.1 ml) were injected in the right hind limb of nude mice. […] IP NS or cisplatin injections were given following the IT vector injection, and 4 consecutive daily IT and IP injections were given. Xenografts were measured every 2 days using calipers and tumor volume was calculated (length×width×thickness)/2. Fractional tumor volumes (V/Vo, Vo=day 0 volume) were calculated and plotted.

Seg-1 xenografts = assay: In vivo regrowth study, Seg-1 xenografts; parameters: species or system athymic nude mice; details: IT vector 2×10^8 p.u., IP cisplatin 3 mg/kg, 4 daily injections, cisplatin line = with null vector
Experimental: as §8

Egr-1 promoter [14] = assay: In vitro luciferase reporter assay, Seg-1 cells; format: cell-based, human
Experimental: (§9) In vitro luciferase reporter assay. […] JM109 competent cells (Stratagene, La Jolla, Calif.) were transformed with these plasmids, endotoxin-free maxipreps (Qiagen, Valencia, Calif.) were prepared, and product confirmation was performed by PCR, sequencing, enzyme restriction, and gel electrophoresis.
(§10) All groups were co-transfected with the Renilla luciferase reporter plasmid construct pRL-TK (HSV thymidine kinase promoter) to normalize for transfection efficiency. […] Cells were harvested 6 hrs later, and luciferase activity was measured using the Dual-Luciferase reporter assay system (Promega).

Egr-1 promoter [15] = assay: In vitro luciferase reporter assay, PROb cells; format: cell-based, rat
Experimental: as §9, §10

[16] = vector-infected PC-3 cells, 24 hrs, cisplatin 250 μM, 5-FU 100 mM, gemcitabine 3 mM, paclitaxel 14 μM
[17] = vector-infected PROb cells, 24 hrs, cisplatin 250 μM, doxorubicin 3 μM, 5-FU 100 mM, gemcitabine 3 mM, paclitaxel 14 μM
[18] = higher concentration: cisplatin 460 μM, doxorubicin 300 μM, 5-FU 200 mM, taxol 140 μM
[19] = lower concentration: cisplatin 46 μM, doxorubicin 3 μM, 5-FU 2 mM, taxol 1.4 μM

Compound | increase in TNF-α levels (PC-3 cells [1]; [16]) | increase in TNF-α levels (PROb cells [2]; [17]) | increased TNF levels (PROb cells [3]) | increased TNF-α levels (PROb xenografts [4]) | induced TNF-α (PC-3 xenografts [5]) | surviving fraction (PC-3 cells [6]; [18]) | surviving fraction (PC-3 cells [6]; [19]) | surviving fraction (PROb cells [7]; [18]) | surviving fraction (PROb cells [7]; [19]) | increased TNF levels (PC-3 cells [8]) | induction of TNF-α protein (PROb xenografts [9]) | increase in TNF-α levels (PC-3 xenografts [10]) | also measured
O=c1[nH]cc(F)c(=O)[nH]1 [5-FU, 5-fluorouracil] | 67.4 fold | 1.7 fold | 2.3 fold | 1.9 fold | 4.2 fold | 20% | 80% | 38% | 69% | 1.8 fold | 1.9 fold | 4.4 fold | 
CC(=O)N[C@@H](CS)C(=O)O [NAC, N-Acetylcysteine] |  |  |  |  |  |  |  |  |  |  |  |  | effect on induction of TNF-α (PROb cells [11]; PROb cells treated with cisplatin, 5-FU, gemcitabine or paclitaxel (data not shown)): significantly reduced the induction of TNF-α; effect on induction of TNF-α (PROb cells [11]; PROb cells, 3 μM doxorubicin, 20 mM NAC): significantly reduced the induction of TNF-α; effect on concentration of TNF-α protein (PC-3 cells [12]; Ad.Egr-TNF.11D transduced PC-3 cells treated with cisplatin, 5-FU, gemcitabine and paclitaxel, 20 mM NAC): significantly decreased the concentration of TNF-α protein; effect on concentration of TNF-α protein (PC-3 cells [12]; PC-3 cells infected with Ad.Egr-TNF.11D and treated with 100 mM 5-FU, NAC 10 mM to 30 mM): decrease the concentration of TNF-α protein
N.N.[Cl][Pt][Cl] [cisplatin] |  |  | 1.6 fold | 1.9 fold | 3.5 fold | 60% | 90% | 77% | 77% | 6.5 fold | 2.6 fold | 3.1 fold | increase in TNF-α levels (PC-3 cells [1]): 3.8 fold; tumor regression (PROb xenografts [13]): moderate tumor regression; increase in TNF-α levels (PROb cells [2]): 1.3 fold; tumor regression (Seg-1 xenografts): moderate tumor regression; LA (Egr-1 promoter [14]; Seg-1 cells transfected with pGL3 425, 50 μM cisplatin): 2.89; increase in LA (Egr-1 promoter [14]; Seg-1 cells transfected with pGL3 425, 50 μM cisplatin vs untreated control): 2.0 fold; LA (Egr-1 promoter [15]; PROb cells transfected with pGL3 425, 50 μM cisplatin): 49.40; increase in LA (Egr-1 promoter [15]; PROb cells transfected with pGL3 425, 50 μM cisplatin vs untreated control): 3.6 fold
O=P1(N(CCCl)CCCl)NCCCO1 (centres unmarked) [cyclophosphamide, Cyclophosphamide] |  |  |  | 2.8 fold | 4.4 fold |  |  |  |  |  | 3.0 fold | 4.4 fold | 
CC(=O)O[C@H]1C(=O)[C@@]2(C)[C@H]([C@H](OC(=O)c3ccccc3)[C@]3(O)C[C@H](OC(=O)[C@H](O)[C@@H](NC(=O)c4ccccc4)c4ccccc4)C(C)=C1C3(C)C)[C@]1(OC(C)=O)CO[C@@H]1C[C@@H]2O [paclitaxel, Paclitaxel] | 1.7 fold | 4.5 fold | 3.0 fold |  |  | 10% | 80% | 8% | 85% | 1.8 fold |  |  | systemic toxicity (PROb xenografts [9]; mouse, in vivo): severe systemic toxicity
Gemcitabine diphosphate | 2.7 fold | 3.5 fold | 5.4 fold | 1.8 fold |  |  |  |  |  |  | 2.5 fold | 3.1 fold | 

From patent publication US8034791B2, “Activation of Egr-1 promoter by DNA damaging chemotherapeutics” (The University of Chicago, priority 2001, dated 2011)
